Test results: patent US11584736B2, “Heterocyclic P2Y14 receptor antagonists” (The United States of America, as represented by the …, priority 2018, dated 2023)

Target: T1, hP2Y14R (Homo sapiens, UniProt Q15391)
T1 construct: expressed in transfected cells
T1 sequence (Q15391 1-338): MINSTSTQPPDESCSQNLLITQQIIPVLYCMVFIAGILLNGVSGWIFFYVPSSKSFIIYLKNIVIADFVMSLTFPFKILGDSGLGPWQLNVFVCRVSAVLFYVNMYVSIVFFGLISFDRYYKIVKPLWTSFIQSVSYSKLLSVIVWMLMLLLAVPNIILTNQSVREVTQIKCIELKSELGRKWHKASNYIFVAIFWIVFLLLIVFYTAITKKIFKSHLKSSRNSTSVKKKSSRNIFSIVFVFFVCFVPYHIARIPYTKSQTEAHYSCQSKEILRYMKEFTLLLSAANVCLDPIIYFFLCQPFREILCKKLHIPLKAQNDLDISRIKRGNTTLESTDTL
Experiment: Competitive fluorescent binding assay, flow cytometry of whole hP2Y14R-CHO cells
Settings: Table 1; hP2Y14R-CHO cells, fluorescent antagonist tracer 20 nM, mean ± SEM (n = 3-5); read-out: IC50
Experimental: Cell Culture: Chinese hamster ovary cells stably expressing the hP2Y14—R (CHO-hP2Y14R) were grown in Dulbecco's Modified Eagle's Medium (DMEM)/Ham's F12 (F12) 1:1 supplemented with 10% FBS, 100 units/mL penicillin, […] streptomycin, 2 mM L-glutamine and 0.500 mg/mL G418 Sulfate (Geneticin). Cells were maintained in a humidified atmosphere and sterile incubation conditions held at 37° C. and 5% CO2 (g).
Competitive Assay: Competitive fluorescent assays were performed on a BD FACSCalibur flow cytometer in conjunction with the softwares BD Bioscience PlateManager and CellQuest. All cell culture growth and assays for this procedure were conducted on flat-bottom 96-well plates. CHO-hP2Y14R cells were grown to approximately 80-90% confluency prior to assays. The 96-well plate format enabled four compounds to be analyzed in triplicate per run. All unlabeled ligand compounds are stored as 5 mM stock solutions in dimethyl sulfoxide (DMSO). Serial dilutions of each compound were prepared in complete medium. Cells were initially incubated with unlabeled compounds for 30 min at 37° C. and 5% CO2 (g). […] After three consecutive washes in sterile 1× Dulbecco's Phosphate Buffered Saline (DPBS) minus Ca^2+/Mg^2+, cells were detached from the plate using Corning Cellstripper™ to reduce damaging the hP2Y14R protein. Final cell suspensions for flow cytometry was in DPBS minus Ca^2+/Mg^2+.
IC50 values were determined from the gathered data with the program GraphPad Prism version 7.0.

| IC50 [nM] | SMILES |
| --- | --- |
| 195 ± 120 | CN1CCC(c2ccc(-c3cc(C(=O)O)cc4cc(-c5ccc(C(F)(F)F)cc5)ccc34)cc2)CC1 [Compound 5, 4-(4-(1-Methylpiperidin-4-yl)phenyl)-7-(4-(trifluoromethyl)phenyl)-2-naphthoic acid] |
| ~400 | O=C(O)c1cc(-c2ccc(C34CCNCC3C4)cc2)cc(-n2cc(-c3ccc(C(F)(F)F)cc3)nn2)c1 (stereo not shown) [Compound 18, 4′-(3-Azabicyclo[4.1.0]heptan-6-yl)-5-(4-(4-(trifluoromethyl)phenyl)-1H-1,2,3-triazol-1-yl)-[1,1′-biphenyl]-3-carboxylic acid] |
| 42100 ± 8400 | N#Cc1cc(-c2ccc(C3CCNCC3)cc2)cc(-n2cc(-c3ccc(C(F)(F)F)cc3)nn2)c1 [Compound 16, 4′-(Piperidin-4-yl)-5-(4-(4-(trifluoromethyl)phenyl)-1H-1,2,3-triazol-1-yl)-[1,1′-biphenyl]-3-carbonitrile] |
| 139 ± 19 | C#CCN1CCC(c2ccc(-c3cc(C(=O)O)cc4cc(-c5ccc(C(F)(F)F)cc5)ccc34)cc2)CC1 [Compound 6, 4-(4-(1-(Prop-2-yn-1-yl)piperidin-4-yl)phenyl)-7-(4-(trifluoromethyl)phenyl)-2-naphthoic acid] |
| 133 ± 111 | CCCN1CCC(c2ccc(-c3cc(C(=O)O)cc4cc(-c5ccc(C(F)(F)F)cc5)ccc34)cc2)CC1 [Compound 7, 4-(4-(1-Propylpiperidin-4-yl)phenyl)-7-(4-(trifluoromethyl)phenyl)-2-naphthoic acid] |
| 963 ± 417 | NCCOCCOCCOCCOCCOCCOCCC(=O)N1CCC(c2ccc(-c3cc(C(=O)O)cc4cc(-c5ccc(C(F)(F)F)cc5)ccc34)cc2)CC1 [Compound 12, 4-(4-(1-(1-Amino-3,6,9,12,15,18-hexaoxahenicosan-21-oyl)piperidin-4-yl)phenyl)-7-(4-(trifluoromethyl)phenyl)-2-naphthoic acid] |
| 131 ± 11 | CCCCCCN1CCC(c2ccc(-c3cc(C(=O)O)cc4cc(-c5ccc(C(F)(F)F)cc5)ccc34)cc2)CC1 [Compound 9, 4-(4-(1-Hexylpiperidin-4-yl)phenyl)-7-(4-(trifluoromethyl)phenyl)-2-naphthoic acid] |
| > 100000 | NC(=O)c1cc(-c2ccc(C3CCNCC3)cc2)cc(-n2cc(-c3ccc(C(F)(F)F)cc3)nn2)c1 [Compound 15, 4′-(Piperidin-4-yl)-5-(4-(4-(trifluoromethyl)phenyl)-1H-1,2,3-triazol-1-yl)-[1,1′-biphenyl]-3-carboxamide] |

| SMILES | IC50 [nM] |
| --- | --- |
| CC(C)(C)OC(=O)N1CCC(c2ccc(-c3cc(C(=O)O)cc4cc(-c5ccc(C(F)(F)F)cc5)ccc34)cc2)CC1 [Compound 10, 4-(4-(1-(tert-butoxycarbonyl)piperidin-4-yl)phenyl)-7-(4-(trifluoromethyl)phenyl)-2-naphthoic acid] | 2440 ± 1540 |
| O=C(O)c1cc(-c2ccc(C34CCN(CC3)CC4)cc2)c2ccc(-c3ccc(C(F)(F)F)cc3)cc2c1 [Compound 17, 4-(4-(Quinuclidin-4-yl)phenyl)-7-(4-(trifluoromethyl)phenyl)-2-naphthoic acid] | 20 ± 4.4 |

Same assay, conditions: Table 2; hP2Y14R-CHO cells, fluorescent antagonist tracer 20 nM, mean ± SEM (n = 3-5); read-out: IC50

| IC50 [nM] | SMILES |
| --- | --- |
| 3050 ± 210 | NC(=O)c1ccc(-c2cc(NC(=O)c3ccc(C(F)(F)F)cc3)cc(C(=O)O)c2)cc1 [Compound 27, 4′-Carbamoyl-5-(4-(trifluoromethyl)benzamido)-[1,1′-biphenyl]-3-carboxylic acid] |
| > 100000 | O=C(O)c1cc(-c2ccc(C3CCNCC3)cc2)c2nc(-c3ccc(C(F)(F)F)cc3)[nH]c2c1 [Compound 35, 4-(4-(Piperidin-4-yl)phenyl)-2-(4-(trifluoromethyl)phenyl)-1H-benzo[d]imidazole-6-carboxylic acid] |
| 1680 ± 380 | NC(=O)c1ccc(-c2cc(C(=O)O)cc(-c3cn(-c4ccc(C(F)(F)F)cc4)nn3)c2)cc1 [Compound 24, 4′-Carbamoyl-5-(1-(4-(trifluoromethyl)phenyl)-1H-1,2,3-triazol-4-yl)-[1,1′-biphenyl]-3-carboxylic acid] |
| 6040 ± 810 | NC(=O)c1ccc(-c2cc(C(=O)O)cc(C(=O)Nc3ccc(C(F)(F)F)cc3)c2)cc1 [Compound 29, 4′-Carbamoyl-5-((4-(trifluoromethyl)phenyl)carbamoyl)-[1,1′-biphenyl]-3-carboxylic acid] |
| > 100000 | O=C(O)c1[nH]c(-c2ccc(C3=CCNCC3)cc2)cc1-n1cc(-c2ccc(C(F)(F)F)cc2)nn1 [Compound 33, 5-(4-(1,2,3,6-Tetrahydropyridin-4-yl)phenyl)-3-(4-(4-(trifluoromethyl)phenyl)-1H-1,2,3-triazol-1-yl)-1H-pyrrole-2-carboxylic acid] |

| SMILES | IC50 [nM] |
| --- | --- |
| NCCCNC(=O)c1ccc(-c2cc(C(=O)O)cc(-c3cn(-c4ccc(C(F)(F)F)cc4)nn3)c2)s1 [Compound 26, 3-(5-((3-Aminopropyl)carbamoyl)thiophen-2-yl)-5-(1-(4-(trifluoromethyl)phenyl)-1H-1,2,3-triazol-4-yl)benzoic acid] | 2600 ± 560 |
| O=C(O)c1cc(-c2ccc(C3CCNCC3)cc2)cc(-c2cn(-c3ccc(C(F)(F)F)cc3)nn2)c1 [Compound 25, 4′-(Piperidin-4-yl)-5-(1-(4-(trifluoromethyl)phenyl)-1H-1,2,3-triazol-4-yl)-[1,1′-biphenyl]-3-carboxylic acid] | 644 ± 175 |

Same assay, conditions: Table 3 comparison column; values identical to Tables 1 and 2; read-out: hP2Y14R, IC50

| SMILES | IC50 [nM] |
| --- | --- |
| O=C(O)c1cc(-c2ccc(N3CCNCC3)cc2)cc(-n2cc(-c3ccc(C(F)(F)F)cc3)nn2)c1 [Compound 4, 4′-(Piperazin-1-yl)-5-(4-(4-(trifluoromethyl)phenyl)-1H-1,2,3-triazol-1-yl)-[1,1′-biphenyl]-3-carboxylic acid] | 233 ± 26 |
| O=C(O)c1cc(-c2ccc(C3CCNCC3)cc2)cc(-c2cn(-c3ccc(C(F)(F)F)cc3)nn2)c1 [Compound 25, 4′-(Piperidin-4-yl)-5-(1-(4-(trifluoromethyl)phenyl)-1H-1,2,3-triazol-4-yl)-[1,1′-biphenyl]-3-carboxylic acid] | 644 ± 175 |

Target: T2, mP2Y14R (Mus musculus, UniProt Q9ESG6)
T2 construct: expressed in transfected cells; host or cells: HEK293 cells
T2 sequence (Q9ESG6 1-338): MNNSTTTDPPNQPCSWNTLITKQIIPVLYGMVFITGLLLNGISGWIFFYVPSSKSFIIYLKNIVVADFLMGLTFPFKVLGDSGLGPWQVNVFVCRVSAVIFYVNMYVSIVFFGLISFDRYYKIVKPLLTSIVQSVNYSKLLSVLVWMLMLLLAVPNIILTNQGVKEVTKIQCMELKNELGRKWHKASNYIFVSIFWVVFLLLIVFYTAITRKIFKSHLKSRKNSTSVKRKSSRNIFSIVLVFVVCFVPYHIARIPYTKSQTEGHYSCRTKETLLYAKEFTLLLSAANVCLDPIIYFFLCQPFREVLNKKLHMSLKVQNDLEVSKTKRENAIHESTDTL
Experiment: Fluorescence binding method at mP2Y14R expressed in HEK293 cells
Settings: Table 3

| SMILES | IC50 [nM] |
| --- | --- |
| O=C(O)c1cc(-c2ccc(N3CCNCC3)cc2)cc(-n2cc(-c3ccc(C(F)(F)F)cc3)nn2)c1 [Compound 4, 4′-(Piperazin-1-yl)-5-(4-(4-(trifluoromethyl)phenyl)-1H-1,2,3-triazol-1-yl)-[1,1′-biphenyl]-3-carboxylic acid] | 499 ± 57 |

System: eosinophils in the bronchoalveolar lavage fluid
Experiment: Protease-mediated mouse model of asthma
Format: in vivo
Settings: 10 mg/kg i.p., 30 minutes prior to ovalbumin challenge at day 14, P<0.01 vs vehicle
Experimental: […][…] antagonists were tested in vivo in a protease-mediated mouse model of asthma and found to be effective in reducing the presence of eosinophils in the bronchoalveolar lavage fluid. The animals were first sensitized with ovalbumin/Aspergillus oryzae extract on days 0 and 7. Antagonists were injected i.p. at a dose of 10 mg/kg, 30 minutes prior to an ovalbumin challenge at day 14. […] Both […][…] antagonist effects were statistically significant (P<0.01) compared to vehicle control.

| SMILES | eosinophils in the bronchoalveolar lavage fluid, normalized and compared to vehicle (100±15%) [%] |
| --- | --- |
| NCCCNC(=O)c1ccc(-c2cc(C(=O)O)cc(-n3cc(-c4ccc(C(F)(F)F)cc4)nn3)c2)s1 [Compound 23] | 40.3±11.0 |
| O=C(O)c1cc(-c2ccc(C3CCNCC3)cc2)c2ccc(-c3ccc(C(F)(F)F)cc3)cc2c1 [Compound 1] | 43.9±12.8 |
